From patent US4624950A, “Method for treating atherosclerosis hyperlipidema, lipid deposition on arterial walls, or raising the ratio of high density lipoprotein cholesterol to total cholesterol in serum” (Nissan Chemical Industries Ltd., priority 1983, dated 1986)

Legend:
[1] = system: cholesterol-fed hyperlipidemic rats; assay: Antihyperlipidemic activity in cholesterol-fed hyperlipidemic rats (Test 3); type: in vivo, rat (male S.D.)
Procedure: (§1) It is administered from once to three times per day. The dose may of course be varied depending upon the age, the weight or the condition of illness of the patient. […] In the following tests, the fractionation of lipoproteins was conducted by a dextran sulfate-MgCl2 precipitation method.
(§2) Cholesterol in serum was measured by means of a cholesterol measuring kit (Cholesterol C-Test Wako, manufactured by Wako Junyaku Co., Ltd.), and cholesterol in HDL was measured by means of NC Hi-Set, manufactured by Nippon Chemiphar Co., Ltd. The quantitative analysis of triglyceride was conducted by means of a triglyceride measuring kit (Triglyceride C-II-Test Wako, manufactured by Wako Junyaku Co., Ltd.).
(§3) Further, the change rate in the following Tables, was calculated by the following equation.
Change rate(%)=(A-B/A)×100 where A is the amount of serum lipids (mg/dl) of the control group, and B is the amount of serum lipids (mg/dl) of the group to which the therapeutic agent was administered.
The antihyperlipidemic activity in cholesterol-fed hyperlipidemic rats
Male S.D. rats weighing 80-90 g (30 days old) were divided into groups of 5 rats each. The test compounds suspended in 0.5% CMC-Na were given to the rats in a daily dose of 0.4 ml per 100 g rat via stomach tube every 10:00 a.m. for 7 or 14 days. Control groups were given an equal volume of the vehicle. […] The total cholesterol, triglyceride and HDL cholesterol in serum were measured. After sacrificed, the livers were excised, washed with physiological saline, blotted on filter paper and weighed. The degree of hepatomegaly was calculated by the following equation.
Degree of hepatomegaly (%)=(D-C/C)×100 where C is the liver weight (g) per 100 g body weight in the control animal, and D is the liver weight (g) per 100 g body weight in the drug treated animal.

[2] = system: experimental atherosclerosis in rabbits induced by cholesterol diet; assay: Effect on experimental atherosclerosis in rabbits induced by cholesterol diet (Test 4); type: in vivo, rabbit (male)
Procedure: The effect of the compound of the formula I on experimental atherosclerosis in rabbits induced by cholesterol diet
Twenty-five male rabbits weighing 1.8-2.0 kg were used. They were fed with basic chow (Nippon clea, CR-3) for a stabilizing period of 5 days. After this period, they were fed with the chow containing 1% cholesterol, 100 g per head a day for a week (7 days) and plasma cholesterol was measured using a blood sample collected from acuricle vein.
According to the results of cholesterol values measured, 14 animals of high cholesterol plasma level were selected. They were divided into two groups to have nearly equal means and S.D. values of plasma cholesterol. One group of 7 rabbits was fed with the chow containing 1% cholesterol and another group of 7 rabbits was fed with the chow containing 1% cholesterol and 0.1% compound of the formula I in an amount of 100 g per head a day for 8 weeks.
Rabbits were sacrificed at the end of 8 weeks. Aortic arch and thoracic aorta were excised, and macroscopical changes were examined using the Sudan III stain method. According to the results of gross observation of the internal surface stained by Sudan III, the ratios of the atherosclerotic plaque area (the area stained by Sudan III) to the whole internal surface area were calculated. The ratio of inhibition of atherosclerosis of the compound of the formula I was obtained by comparing the average value with the value of the control.

normal rats = assay: Activities against serum lipid, degree of hepatomegaly and GOT/GPT in normal rats (Test 5); type: in vivo, rat (male S.D.); conditions: 300 mg/kg/day, seven days
Procedure: as §1, §2, §3
Change rate(%)=(A-B/A)×100
where A is the amount of serum lipids (mg/dl) of the control group, and B is the amount of serum lipids (mg/dl) of the group to which the therapeutic agent was administered.
The activities against serum lipid, the degree of hepatomegaly and the hepatic drug metabolizing systems of normal rats
Male S.D. rats (6 weeks old) were divided into groups of 5 rats each. The test compounds suspended in 5% gum arabic were given to the rats once a day for seven days in a daily dose of 300 mg/kg. Then, the rats were fasted for one day, blood samples were taken, and the total cholesterol, triglyceride, HDL-cholesterol in the serum were quantitatively analyzed. Further, the liver weight was measured, and the degree of hepatomegaly was determined by comparing the weight ratio per 100 g of the body weight with that of the control group. Furthermore, GOT and GPT values were measured, and the activities of cytochrome P-450 and glutathione related enzymes were also measured. These values were compared with those of the control groups to investigate any abnormality.

[3] = 0.1% in 1% cholesterol chow, 8 weeks, vs control
[4] = 0.1% in 1% cholesterol chow, 100 g per head a day, 8 weeks

Which results are given for CN1C(=S)SC(c2ccccc2)N(C)C1c1ccccc1 (stereo not drawn) [Compound of the formula I, 3,5-dimethyl-4,6-diphenyl-tetrahydro-2H-1,3,5-thiadiazine-2-thione]?
Hepatomegaly (in words) ([1]; 7 or 14 days): no hepatomegaly; Lipid reducing and HDL-cholesterol increasing activity (in words) ([1]; 7th day): not distinct very much; Change rate, HDL-Chol ([1]; 7th day, 10 mg/kg/day p.o.): -12.7%; Change rate, TG ([1]; 7th day, 10 mg/kg/day p.o.): -13.8%; Change rate, Total-Chol ([1]; 7th day, 10 mg/kg/day p.o.): -3.3%; Degree of hepatomegaly ([1]; 7th day, 10 mg/kg/day p.o.): +4.0%; Serum lipid, HDL-Chol ([1]; 7th day, 10 mg/kg/day p.o.): 15.8 mg/dL; Serum lipid, TG ([1]; 7th day, 10 mg/kg/day p.o.): 105.9 mg/dL; Serum lipid, Total-Chol ([1]; 7th day, 10 mg/kg/day p.o.): 421.7 mg/dL; Change rate, HDL-Chol ([1]; 7th day, 50 mg/kg/day p.o.): 0%; Change rate, TG ([1]; 7th day, 50 mg/kg/day p.o.): -15.3%; Change rate, Total-Chol ([1]; 7th day, 50 mg/kg/day p.o.): -33.6%; Degree of hepatomegaly ([1]; 7th day, 50 mg/kg/day p.o.): +2.0%; Serum lipid, HDL-Chol ([1]; 7th day, 50 mg/kg/day p.o.): 18.1 mg/dL; Serum lipid, TG ([1]; 7th day, 50 mg/kg/day p.o.): 104.0 mg/dL; Serum lipid, Total-Chol ([1]; 7th day, 50 mg/kg/day p.o.): 289.8 mg/dL; Change rate, HDL-Chol ([1]; 7th day, 100 mg/kg/day p.o.): +6.1%; Change rate, TG ([1]; 7th day, 100 mg/kg/day p.o.): -24.5%; Change rate, Total-Chol ([1]; 7th day, 100 mg/kg/day p.o.): -32.4%; Serum lipid, HDL-Chol ([1]; 7th day, 100 mg/kg/day p.o.): 19.2 mg/dL; Serum lipid, TG ([1]; 7th day, 100 mg/kg/day p.o.): 92.7 mg/dL; Serum lipid, Total-Chol ([1]; 7th day, 100 mg/kg/day p.o.): 294.7 mg/dL; Change rate, HDL-Chol ([1]; 7th day, 150 mg/kg/day p.o.): -4.4%; Change rate, TG ([1]; 7th day, 150 mg/kg/day p.o.): -46.1%; Change rate, Total-Chol ([1]; 7th day, 150 mg/kg/day p.o.): -11.7%; Degree of hepatomegaly ([1]; 7th day, 150 mg/kg/day p.o.): +12.0%; Serum lipid, HDL-Chol ([1]; 7th day, 150 mg/kg/day p.o.): 17.3 mg/dL; Serum lipid, TG ([1]; 7th day, 150 mg/kg/day p.o.): 66.2 mg/dL; Serum lipid, Total-Chol ([1]; 7th day, 150 mg/kg/day p.o.): 385 mg/dL; Lipid reducing and HDL-cholesterol increasing activity (in words) ([1]; 14th day): strong lipid reducing activity and HDL-cholesterol increasing activity; Change rate, HDL-Chol ([1]; 14th day, 10 mg/kg/day p.o.): +129.9%; Change rate, TG ([1]; 14th day, 10 mg/kg/day p.o.): -44.6%; Change rate, Total-Chol ([1]; 14th day, 10 mg/kg/day p.o.): -42.5%; Degree of hepatomegaly ([1]; 14th day, 10 mg/kg/day p.o.): +5.3%; Serum lipid, HDL-Chol ([1]; 14th day, 10 mg/kg/day p.o.): 20.0 mg/dL; Serum lipid, TG ([1]; 14th day, 10 mg/kg/day p.o.): 92.5 mg/dL; Serum lipid, Total-Chol ([1]; 14th day, 10 mg/kg/day p.o.): 336.5 mg/dL; Change rate, HDL-Chol ([1]; 14th day, 50 mg/kg/day p.o.): +135.6%; Change rate, TG ([1]; 14th day, 50 mg/kg/day p.o.): -47.5%; Change rate, Total-Chol ([1]; 14th day, 50 mg/kg/day p.o.): -33.5%; Degree of hepatomegaly ([1]; 14th day, 50 mg/kg/day p.o.): +1.8%; Serum lipid, HDL-Chol ([1]; 14th day, 50 mg/kg/day p.o.): 20.5 mg/dL; Serum lipid, TG ([1]; 14th day, 50 mg/kg/day p.o.): 87.7 mg/dL; Serum lipid, Total-Chol ([1]; 14th day, 50 mg/kg/day p.o.): 389.2 mg/dL; Change rate, HDL-Chol ([1]; 14th day, 100 mg/kg/day p.o.): +186.2%; Change rate, TG ([1]; 14th day, 100 mg/kg/day p.o.): -44.8%; Change rate, Total-Chol ([1]; 14th day, 100 mg/kg/day p.o.): -53.7%; Degree of hepatomegaly ([1]; 14th day, 100 mg/kg/day p.o.): +10.5%; Serum lipid, HDL-Chol ([1]; 14th day, 100 mg/kg/day p.o.): 24.9 mg/dL; Serum lipid, TG ([1]; 14th day, 100 mg/kg/day p.o.): 92.2 mg/dL; Serum lipid, Total-Chol ([1]; 14th day, 100 mg/kg/day p.o.): 271.3 mg/dL; Change rate, HDL-Chol ([1]; 14th day, 150 mg/kg/day p.o.): +147.1%; Change rate, TG ([1]; 14th day, 150 mg/kg/day p.o.): -53.8%; Change rate, Total-Chol ([1]; 14th day, 150 mg/kg/day p.o.): -60.9%; Degree of hepatomegaly ([1]; 14th day, 150 mg/kg/day p.o.): +5.3%; Serum lipid, HDL-Chol ([1]; 14th day, 150 mg/kg/day p.o.): 21.5 mg/dL; Serum lipid, TG ([1]; 14th day, 150 mg/kg/day p.o.): 77.1 mg/dL; Serum lipid, Total-Chol ([1]; 14th day, 150 mg/kg/day p.o.): 228.6 mg/dL; Ratio of inhibition of atherosclerosis (Ratio of Improvement), Aortic arch [2, 3]: 13.8%; Ratio of inhibition of atherosclerosis (Ratio of Improvement), Thoracic aorta [2, 3]: 67.7%; Ratio of inhibition of atherosclerosis (Ratio of Improvement), Total aorta [2, 3]: 45.3%; Atherosclerotic plaque area stained by Sudan III, Aortic arch [2, 4]: 77.7%; Atherosclerotic plaque area stained by Sudan III, Thoracic aorta [2, 4]: 11.0%; Atherosclerotic plaque area stained by Sudan III, Total aorta [2, 4]: 26.3%; Inhibition of experimental atherosclerosis (in words) ([2]; 1% cholesterol diet): inhibits experimental atherosclerosis; Hepatic insufficiency from GOT and GPT values (in words) (normal rats): No hepatic insufficiency was observed; Hepatomegaly (in words) (normal rats): no substantial hepatomegaly; LDL-cholesterol reduction (in words) (normal rats): ramarkably reduces LDL-cholesterol; Serum lipid, HDL-Chol (normal rats): 29.2 mg/dL; Serum lipid, TG (normal rats): 37.5 mg/dL; Serum lipid, Total-Chol (normal rats): 39.2 mg/dL; Change rate, HDL-Chol (normal rats; vs control): -1.0%; Change rate, TG (normal rats; vs control): -21.0%; Change rate, Total-Chol (normal rats; vs control): -16.2%; Degree of hepatomegaly (normal rats; vs control): +7.0%
